Assay results: US9084782B2, “Chemical inhibitors of cholesterol biosynthesis and venous angiogenesis” (The Regents of the University of California, priority 2011, dated 2015)

Columns and labels:
[1] = test system: caudal vein endothelial cells; assay: Caudal vein endothelial cell migration, time-lapse confocal imaging; type: in vivo, zebrafish; conditions: 10 μM aplexone
Protocol: A-B, Representative images of the caudal vein of control (A) and 10 μM aplexone-treated embryos (B) at 30 hpf. Images were overlaid with the endothelial cell migration path inferred from time-lapse confocal movies taken from 25 hpf to 30 hpf. The migration of caudal vein endothelial cells was traced using the Manual Tracking feature of ImageJ and the positions of ISV sprouting points were used as references to adjust for the growth of embryos. C, The distance of endothelial cell migration in caudal vein of control and aplexone-treated Tg(kdrl:GFP) embryos. Asterisk indicates p<0.05. (D) The window of application of aplexone. Grey bars represent the developmental stages during which Tg(kdrl:GFP) embryos were exposed to 10 μM aplexone and the caudal vein phenotype was analyzed at 48 hpf. […] A “−” indicates the formation of normal caudal vein plexus.
Images of GFP expression in Tg(kdrl:GFP) embryos were acquired using a Zeiss SV-11 epifluorescence microscope. Confocal images were acquired using a Carl Zeiss Laser Scanning Systems LSM510 equipped with 20× air, 20× water or 40× water immersion objectives. For single time point confocal images, embryos were anesthetized with 0.01% tricaine and embedded in 1% agarose. […] The images obtained were analyzed using the Zeiss LSM Image Brower version 4 and Image J. […]

[2] = test system: ephrinB2a, ephB4 and flt4; assay: In situ hybridization for arterial and venous markers; type: in vivo, zebrafish; conditions: 10 μM from 10 hpf, fixed at 24 hpf
Protocol: Untreated control embryos (A, C, E and A′, C′, E′) and embryos treated with 10 μM aplexone beginning at 10 hpf (B, D, F and B′, D′, F′) were fixed at 24 hpf. Arterial and venous fates were analyzed by in situ hybridization using ephrinB2a (A,A′,B,B′), ephB4 (C,C′,D,D′) and flt4 (E,E′,F,F′) probes. Arrowhead, dorsal aorta. Embryos were analyzed at higher magnification in the trunk in A′-F′, with regions of interest indicated by black boxes in A-F. Arrow, posterior cardinal vein.
To understand whether angiogenesis from arterial and venous ECs are under different genetic controls we screened a collection of small molecules for compounds that preferentially suppress angiogenesis from exclusively one cell type. In this screen, we used the primary ISV sprouts as the readout for arterial-derived angiogenesis, and the CVP and secondary ISV sprouts as indicators of venous-derived angiogenesis. We found one synthetic compound, aplexone, which has a lineage-dependent effect on angiogenesis. The spatial and temporal development of primary ISVs in the trunk is indistinguishable between 2-day-old control and aplexone-treated embryos (FIG. 1L-M′). […] Secondary ISVs are also absent in these embryos (FIG. 1L-M′).

[3] = test system: Tg(kdrl:GFP) zebrafish embryos; assay: Caudal vein plexus (CVP) formation / venous angiogenesis in Tg(kdrl:GFP) zebrafish embryos; type: in vivo
Text: Images of GFP expression in Tg(kdrl:GFP) embryos were acquired using a Zeiss SV-11 epifluorescence microscope. Confocal images were acquired using a Carl Zeiss Laser Scanning Systems LSM510 equipped with 20× air, 20× water or 40× water immersion objectives. For single time point confocal images, embryos were anesthetized with 0.01% tricaine and embedded in 1% agarose. When capturing time-lapse confocal movies, embryos were mounted in 3.5% methylcellulose (Sigma-Aldrich) and imaged for 5 hrs on a heated stage at 28.5° C. The images obtained were analyzed using the Zeiss LSM Image Brower version 4 and Image J.
A synthetic chemical library containing 168 compounds (Castellano et al., 2007) and 300 chemicals from Biomol International LP, consisting of 72 ion channel inhibitors (Cat No. 2805), 84 kinase/phosphatase inhibitors (Cat No. 2831), 84 orphan ligands (Cat No. 2825), and 60 endocannabinoids (Cat No. 2801) were screened. The synthetic small molecules were prepared through nucleophilic phosphine catalysis of allenoates (Zhu et al., 2003). Four Tg(kdrl:GFP) embryos were placed into each well of 96-well plates containing a 10 μM solution of each chemical compound dissolved in embryo buffer with 0.1% DMSO. The embryos were raised at 28.5° C. and examined for defects in blood vessel development at 1 and 2 days after treatment. Standard parameters such as numbers of somites and head to body angle were used to determine the stages of zebrafish embryos (Kimmel et al., 1995).
(§1) Aplexone treatment described in this study was carried out at a concentration of 10 μM starting at 10 hpf unless otherwise specified.
8 ng tnnt2 MO (Gene Tools) (Sehnert et al., 2002), 3 nl of 4 mM GGTI-2133 (Calbiochem), 3 nl of 5 mM L744,832 (Calbiochem) and 1 nl of 2M mevalonate (Sigma-Aldrich) were injected into 1-2 cell stage embryos.
The library of 168 compounds^24 prepared through the nucleophilic phosphine catalysis of allenes were screened using Tg(kdrl:GFP) zebrafish. Four embryos were placed in each well of 96-well plates containing a 10 uM solution of each chemical compound dissolved in embryo buffer with 0.1% DMSO. The embryos were raised at 28.5° C. and defects in blood vessel development were examined at 1 and 2 days after fertilization.

zebrafish embryos = assay: Overall phenotype of treated zebrafish embryos (body shape, circulation); type: in vivo
Protocol: A,B,C, Overall phenotype of control and aplexone-treated embryos at 30 hpf. A′,B′,C′, Vasculature in trunk. […] D-E, Germ cells in control and aplexone treated embryos at 24 hpf were detected by in situ hybridization using the nanos probe. F, The percentage of embryos with ectopic primordial germ cells in control (n=26), 5 μM (n=13), and 10 μM (n=14) aplexone-treated embryos. […] I, The percentage of embryos with cardia bifida in control (n=16) and 10 μM-(n=17), 20 μM-(n=17) and 30 μM-(n=18) aplexone-treated embryos.
as §1

HMGCR pathway = assay: Microarray expression profiling of aplexone-treated embryos (Affymetrix Zebrafish GeneChip); type: in vivo; conditions: 10 μM, RNA at 30 hpf
Protocol: Embryos at the 5-somite stage were treated with 0.4% DMSO (control) or 10 μM of aplexone in 0.4% DMSO and total RNA was isolated using the RNAeasy micro kit (Qiagen) at 30 hpf. Microarray analysis was performed in triplicate using the Affymetrix Zebrafish GeneChip, representing 15,617 genes. Synthesis and labeling of antisense RNA was performed as recommended by the array manufacturer using kits from Invitrogen for double-stranded cDNA synthesis, Enzo Life Sciences for transcription and labeling of antisense RNA and Affymetrix for probe purification and hybridization controls. Microarray hybridization data were analyzed using scripts written in the statistical programming language R (Team, 2009). Differentially expressed genes (DEGs) were identified using a linear model and multiple testing correction from the limma package (Smyth, 2004). The expression values were obtained using the robust multi array algorithm (Irizarry et al., 2003).

## CC(=O)C1=CCC(c2ccccc2)N(S(=O)(=O)c2ccc(C)cc2)C1 (stereo not shown) [aplexone]
[1]
  maturation of caudal vein EC filopodia into angiogenic sprouts: never matured into angiogenic sprouts
[1]; between 25 hpf and 30 hpf
  average EC migration distance during CVP formation: 35 μm
[2]
  arterial (ephrin B2a) and venous (flt4, ephB4) marker expression: could not distinguish aplexone-treated embryos from control embryos
[3]; 2 μM single agent
  CVP formation at suboptimal level: normal CVP
[3]; 10 μM aplexone from 10 hpf
  formation of the CVP: severely defective
[3]; 10 μM from 10 hpf, 2-day-old embryos
  secondary ISVs (venous-derived sprouts): absent
Zebrafish embryos; 10 μM aplexone
  body shape: relatively normal body shape
Zebrafish embryos; 30 μM aplexone
  embryo length: shorter than control embryos
Zebrafish embryos; aplexone-treated embryos
  blood circulation: lack blood circulation
HMGCR pathway
  fold change 3-hydroxy-3-methylglutaryl-Coenzyme A synthase 1 (HMGCS): 2.0 fold
  fold change Krueppel-like factor 11 (TIEG-2): 2.1 fold
  fold change carbonyl reductase 1-like: 2.1 fold
  fold change coronin, actin binding protein, 1A: −2.1 fold
  fold change cytochrome P450, family 51 (CYP51): 2.8 fold
  fold change farnesyl diphosphate synthetase (FDPS): 2.0 fold
  fold change fatty acid desaturase 2: 2.4 fold
  fold change glutamate dehydrogenase 1a: 2.2 fold
  fold change glutathione S-transferase: 3.2 fold
  fold change glutathione reductase like: 2.2 fold
  fold change insulin induced gene 1 (INSIG): 2.6 fold
  fold change insulin-like growth factor binding protein 1: 2.1 fold
  fold change lymphocyte cytosolic plastin 1: −2.7 fold
  fold change lysozyme: −2.7 fold
  fold change myosin regulatory light chain interacting protein: −2.1 fold
  fold change nephrosin: −2.4 fold
  fold change selenoprotein W: 3.1 fold
  fold change sterol-C4-methyl oxidase-like (SC4MOL): 2.0 fold
  fold change sulfotransferase: 3.0 fold
